In patent US20050075375A1 (priority 2003, published 2005):

What follows are compounds tested on monocistronic NK5.1 HCV replicon in Huh7 cells (assay: HCV replicon assay, monocistronic replicon cell line). Conditions: Hepatitis C virus, Huh-7, 72 h; table T3 (compounds 471-640); monocistronic replicon in Huh7 cells, 3 days incubation, HCV RNA/GAPDH RNA by TaqMan RT-PCR; read-out: Mono EC50 Median.
Assay type: cell-based, hepatitis C virus
Procedure, shortened: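 Huh7 cells carrying the monocistronic NK5.1 replicon, seeded 24 h before dosing, were exposed to six-point half-log compound series (0.6% DMSO) for 3 days at 37 °C. Replicon RNA was quantified by TaqMan RT-PCR, normalised to GAPDH and compared with DMSO controls to derive EC50.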

| Structure (SMILES) | EC50 [µM] |
| --- | --- |
| CC(C)c1ccc(-c2nc(-c3ncccc3C(F)(F)F)n[nH]2)cc1 [Compound 548, 2-[5-(4-Isopropyl-phenyl)-1H-[1,2,4]triazol-3-yl]-3-trifluoromethyl-pyridine] | > 19 |
| Oc1ccc2ccccc2c1-c1nc(-c2ncccc2C(F)(F)F)n[nH]1 [Compound 549, 1-[5-(3-trifluoromethyl-pyridin-2-yl)-2H-[1,2,4]triazol-3-yl]-naphthalen-2-ol] | > 19 |
| FC(F)(F)c1cccnc1-c1n[nH]c(-c2cccc(Br)c2)n1 [Compound 550, 2-[5-(3-Bromo-phenyl)-1H-[1,2,4]triazol-3-yl]-3-trifluoromethyl-pyridine] | > 19 |
| FC(F)(F)c1cccnc1-c1n[nH]c(-c2c(Cl)cccc2Cl)n1 [Compound 551, 2-[5-(2,6-Dichloro-phenyl)-1H-[1,2,4]triazol-3-yl]-3-trifluoromethyl-pyridine] | > 19 |
| Fc1cc(Br)ccc1-c1nc(-c2ncccc2C(F)(F)F)n[nH]1 [Compound 552, 2-[5-(4-Bromo-2-fluoro-phenyl)-1H-[1,2,4]triazol-3-yl]-3-trifluoromethyl-pyridine] | > 19 |
| COc1ccc(Br)cc1-c1nc(-c2ncccc2C(F)(F)F)n[nH]1 [Compound 553, 2-[5-(5-Bromo-2-methoxy-phenyl)-1H-[1,2,4]triazol-3-yl]-3-trifluoromethyl-pyridine] | > 19 |
| COc1ccc(O)c(-c2nc(-c3ncccc3[N+](=O)[O-])n[nH]2)c1 [Compound 554, 4-Methoxy-2-[5-(3-nitro-pyridin-2-yl)-2H-[1,2,4]triazol-3-yl]-phenol] | > 19 |
| Nc1cccnc1-c1n[nH]c(-c2cc(Br)ccc2O)n1 [Compound 555, 2-[5-(3-amino-pyridin-2-yl)-2H-[1,2,4]triazol-3-yl]-4-bromo-phenol] | > 3.2 |
| O=[N+]([O-])c1cccnc1-c1n[nH]c(-c2cc(Br)ccc2O)n1 [Compound 556, 4-Bromo-2-[5-(3-nitro-pyridin-2-yl)-2H-[1,2,4]triazol-3-yl]-phenol] | > 3.2 |
| Nc1cccnc1-c1n[nH]c(-c2c(O)ccc3ccccc23)n1 [Compound 557, 1-[5-(3-amino-pyridin-2-yl)-2H-[1,2,4]triazol-3-yl]-naphthalen-2-ol] | > 3.2 |
| O=[N+]([O-])c1cccnc1-c1n[nH]c(-c2c(O)ccc3ccccc23)n1 [Compound 558, 1-[5-(3-Nitro-pyridin-2-yl)-2H-[1,2,4]triazol-3-yl]-naphthalen-2-ol] | > 3.2 |
| CC(C)(C)c1ccc(O)c(-c2nc(-c3ncccn3)n[nH]2)c1 [Compound 559, 4-tert-Butyl-2-(5-pyrimidin-2-yl-2H-[1,2,4]triazol-3-yl)-phenol] | > 32 |
| O=[N+]([O-])c1ccc(O)c(-c2nc(-c3ncccn3)n[nH]2)c1 [Compound 560, 4-Nitro-2-(5-pyrimidin-2-yl-2H-[1,2,4]triazol-3-yl)-phenol] | > 32 |
| Oc1ccc(F)cc1-c1nc(-c2ncccn2)n[nH]1 [Compound 561, 4-Fluoro-2-(5-pyrimidin-2-yl-2H-[1,2,4]triazol-3-yl)-phenol] | > 32 |
| COc1ccc(O)c(-c2nc(-c3ncccn3)n[nH]2)c1 [Compound 562, 4-Methoxy-2-(5-pyrimidin-2-yl-2H-[1,2,4]triazol-3-yl)-phenol] | > 32 |
| Oc1ccc(Cl)cc1-c1nc(-c2ncccn2)n[nH]1 [Compound 563, 4-Chloro-2-(5-pyrimidin-2-yl-2H-[1,2,4]triazol-3-yl)-phenol] | 6.4 |
| CCOc1cccc(-c2nc(-c3ncccn3)n[nH]2)c1O [Compound 564, 6-Ethoxy-2-(5-pyrimidin-2-yl-2H-[1,2,4]triazol-3-yl)-phenol] | > 32 |
| Oc1cc(OCc2ccccc2)ccc1-c1nc(-c2ncccn2)n[nH]1 [Compound 565, 5-Benzyloxy-2-(5-pyrimidin-2-yl-2H-[1,2,4]triazol-3-yl)-phenol] | 26 |
| Oc1ccc(Br)cc1-c1nc(-c2ncccn2)n[nH]1 [Compound 566, 4-Bromo-2-(5-pyrimidin-2-yl-2H-[1,2,4]triazol-3-yl)-phenol] | 5.9 |
| Cc1ccc(O)c(-c2nc(-c3ncccn3)n[nH]2)c1 [Compound 567, 4-Methyl-2-(5-pyrimidin-2-yl-2H-[1,2,4]triazol-3-yl)-phenol] | > 32 |
| COc1ccc(-c2nc(-c3ncccn3)n[nH]2)c(O)c1 [Compound 568, 5-Methoxy-2-(5-pyrimidin-2-yl-2H-[1,2,4]triazol-3-yl)-phenol] | > 32 |
| Oc1ccccc1-c1nc(-c2ncccn2)n[nH]1 [Compound 569, 2-(5-pyrimidin-2-yl-2H-[1,2,4]triazol-3-yl)-phenol] | > 32 |
| COc1cccc(-c2nc(-c3ncccn3)n[nH]2)c1O [Compound 570, 6-Methoxy-2-(5-pyrimidin-2-yl-2H-[1,2,4]triazol-3-yl)-phenol] | > 32 |
| CCN(CC)c1ccc(-c2nc(-c3ncccn3)n[nH]2)c(O)c1 [Compound 571, 5-Diethylamino-2-(5-pyrimidin-2-yl-2H-[1,2,4]triazol-3-yl)-phenol] | 18 |

| Structure (SMILES) | EC50 [µM] |
| --- | --- |
| Oc1ccc(O)c(-c2nc(-c3ncccn3)n[nH]2)c1 [Compound 572, 4-Hydroxy-2-(5-pyrimidin-2-yl-2H-[1,2,4]triazol-3-yl)-phenol] | > 32 |
| Oc1ccc2ccccc2c1-c1nc(-c2ncccn2)n[nH]1 [Compound 573, 1-(5-pyrimidin-2-yl-2H-[1,2,4]triazol-3-yl)-naphthalen-2-ol] | 3.5 |
| Oc1c(-c2nc(-c3ncccn3)n[nH]2)ccc2ccccc12 [Compound 574, 2-(5-Pyrimidin-2-yl-2H-[1,2,4]triazol-3-yl)-naphthalen-1-ol] | > 32 |
| CC(C)(C)c1ccc(O)c(-c2nc(-c3cnccn3)n[nH]2)c1 [Compound 575, 4-tert-Butyl-2-(5-pyrazin-2-yl-2H-[1,2,4]triazol-3-yl)-phenol] | 9 |
| O=[N+]([O-])c1ccc(O)c(-c2nc(-c3cnccn3)n[nH]2)c1 [Compound 576, 4-Nitro-2-(5-pyrazin-2-yl-2H-[1,2,4]triazol-3-yl)-phenol] | 16 |
| Oc1ccc(F)cc1-c1nc(-c2cnccn2)n[nH]1 [Compound 577, 4-Fluoro-2-(5-pyrazin-2-yl-2H-[1,2,4]triazol-3-yl)-phenol] | 18 |
| COc1ccc(O)c(-c2nc(-c3cnccn3)n[nH]2)c1 [Compound 578, 4-Methoxy-2-(5-pyrazin-2-yl-2H-[1,2,4]triazol-3-yl)-phenol] | > 32 |
| Oc1ccc(Cl)cc1-c1nc(-c2cnccn2)n[nH]1 [Compound 579, 4-Chloro-2-(5-pyrazin-2-yl-2H-[1,2,4]triazol-3-yl)-phenol] | 5.8 |
| CCOc1cccc(-c2nc(-c3cnccn3)n[nH]2)c1O [Compound 580, 6-Ethoxy-2-(5-pyrazin-2-yl-2H-[1,2,4]triazol-3-yl)-phenol] | > 32 |
| Oc1cc(OCc2ccccc2)ccc1-c1nc(-c2cnccn2)n[nH]1 [Compound 581, 5-Benzyloxy-2-(5-pyrazin-2-yl-2H-[1,2,4]triazol-3-yl)-phenol] | > 32 |
| Oc1ccc(Br)cc1-c1nc(-c2cnccn2)n[nH]1 [Compound 582, 4-Bromo-2-(5-pyrazin-2-yl-2H-[1,2,4]triazol-3-yl)-phenol] | 18 |
| Cc1ccc(O)c(-c2nc(-c3cnccn3)n[nH]2)c1 [Compound 583, 4-Methyl-2-(5-pyrazin-2-yl-2H-[1,2,4]triazol-3-yl)-phenol] | > 32 |
| COc1ccc(-c2nc(-c3cnccn3)n[nH]2)c(O)c1 [Compound 584, 5-Methoxy-2-(5-pyrazin-2-yl-2H-[1,2,4]triazol-3-yl)-phenol] | > 32 |
| Oc1ccccc1-c1nc(-c2cnccn2)n[nH]1 [Compound 585, 2-(5-pyrazin-2-yl-2H-[1,2,4]triazol-3-yl)-phenol] | > 32 |
| COc1cccc(-c2nc(-c3cnccn3)n[nH]2)c1O [Compound 586, 6-Methoxy-2-(5-pyrazin-2-yl-2H-[1,2,4]triazol-3-yl)-phenol] | > 32 |
| CCN(CC)c1ccc(-c2nc(-c3cnccn3)n[nH]2)c(O)c1 [Compound 587, 5-Diethylamino-2-(5-pyrazin-2-yl-2H-[1,2,4]triazol-3-yl)-phenol] | 23 |
| Oc1ccc(O)c(-c2nc(-c3cnccn3)n[nH]2)c1 [Compound 588, 4-Hydroxy-2-(5-pyrazin-2-yl-2H-[1,2,4]triazol-3-yl)-phenol] | > 32 |
| Oc1ccc2ccccc2c1-c1nc(-c2cnccn2)n[nH]1 [Compound 589, 1-(5-pyrazin-2-yl-2H-[1,2,4]triazol-3-yl)-naphthalen-2-ol] | 7 |
| Oc1c(Br)cc(Br)cc1-c1nc(-c2cnccn2)n[nH]1 [Compound 590, 2,4-Dibromo-6-(5-pyrazin-2-yl-2H-[1,2,4]triazol-3-yl)-phenol] | 14 |
| Oc1c(-c2nc(-c3cnccn3)n[nH]2)ccc2ccccc12 [Compound 591, 2-(5-pyrazin-2-yl-2H-[1,2,4]triazol-3-yl)-naphthalen-1-ol] | 16 |
| Nc1ccc(-c2n[nH]c(-c3cc(Br)ccc3O)n2)nc1 [Compound 592, 2-[5-(5-Amino-pyridin-2-yl)-2H-[1,2,4]triazol-3-yl]-4-bromo-phenol] | > 32 |
| CC(=O)Nc1ccc(-c2n[nH]c(-c3cc(Br)ccc3O)n2)nc1 [Compound 593, N-{6-[5-(5-Bromo-2-hydroxy-phenyl)-1H-[1,2,4]triazol-3-yl]-pyridin-3-yl}-acetamide] | 48.7 |
| COc1ccc(O)c(-c2nc(-c3ccc(N)cn3)n[nH]2)c1 [Compound 594, 2-[5-(5-Amino-pyridin-2-yl)-2H-[1,2,4]triazol-3-yl]-4-methoxy-phenol] | > 19 |
| COc1ccc(O)c(-c2nc(-c3ccc(NC(C)=O)cn3)n[nH]2)c1 [Compound 595, N-{6-[5-(5-methoxy-2-hydroxy-phenyl)-1H-[1,2,4]triazol-3-yl]-pyridin-3-yl}-acetamide] | 41.8 |
